Key:
Assay type in all cases: in vivo
[1] = test system: lambsquarters (Chenopodium album, CHEAL); test: Post-emerge test, greenhouse herbicide activity screening; settings: post-emerge, phytotoxicity rating 0-100 at 14 days after application
Outline: (§1)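 Sandy loam pots; pre-emerge: sown 1 d pre-spray, surface-watered after, then bottom-watered. Post-emerge: sown 8–21 d before, 2–3 leaf stage, + 0.25% v/v NIS, bottom-watered. Acetone, 187 l/ha track spray, 15–1000 g ai/ha. 0–100 injury score, day 14.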

[2] = test system: johnsongrass (Sorghum halepense, SORHA); test: as above; settings: post-emerge, phytotoxicity rating 0-100 at 14 days after application
Outline: as §1

[3] = test system: ivyleaf morningglory (Ipomoea hederacea, IPOHE); test: as above; settings: post-emerge, phytotoxicity rating 0-100 at 14 days after application
Outline: as §1

[4] = test system: barnyardgrass (Echinochloa crus-galli, ECHCG); test: as above; settings: post-emerge, phytotoxicity rating 0-100 at 14 days after application
Outline: as §1

[5] = test system: redroot pigweed (Amaranthus retroflexus, AMARE); test: as above; settings: post-emerge, phytotoxicity rating 0-100 at 14 days after application
Outline: as §1

[6] = test system: green foxtail (Setaria viridis, SETVI); test: as above; settings: post-emerge, phytotoxicity rating 0-100 at 14 days after application
Outline: as §1

[7] = test system: sicklepod (Cassia obtusifolia, CASOB); test: as above; settings: post-emerge, phytotoxicity rating 0-100 at 14 days after application
Outline: as §1

[8] = test system: velvetleaf (Abutilon theophrasti, ABUTH); test: as above; settings: post-emerge, phytotoxicity rating 0-100 at 14 days after application
Outline: as §1

[9] = test system: large crabgrass (Digitaria sanguinalis, DIGSA); test: as above; settings: post-emerge, phytotoxicity rating 0-100 at 14 days after application
Outline: as §1

[10] = test system: field corn (Zea mays L., var. Dekalb 535, CORN); test: Pre-emerge test, crop safety; settings: crop damage, pre-emerge, phytotoxicity rating 0-100 at 14 days after application
Outline: (§2)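 Compounds in acetone were track-sprayed at 187 l/ha, 15–1000 g ai/ha, onto sandy loam pots. Pre-emerge seeds were sown one day before spraying, with surface watering afterwards. Post-emerge plants were at the 2–3 leaf stage and sprayed with 0.25% v/v non-ionic surfactant. Injury was rated 0–100 at 14 days.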

[11] = test system: upland rice (Oryza sp., var. Tebonnet, RICE); test: Pre-emerge test, crop safety; settings: crop damage, pre-emerge, phytotoxicity rating 0-100 at 14 days after application
Outline: as §2

[12] = test system: field corn (Zea mays L., var. Dekalb 535, CORN); test: Post-emerge test, crop safety; settings: post-emerge, crop damage rating 0-100 at 14 days after application
Outline: (§3)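 Visual ratings on a 0-100 scale (0 no damage, 100 all plants dead) were taken at 14 days after treatment. Rates of 15-1000 g ai/ha in acetone, 187 l/ha, were sprayed onto soil one day after planting (pre-emerge) or onto 2-3 leaf plants with 0.25% v/v surfactant (post-emerge).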

[13] = test system: upland rice (Oryza sp., var. Tebonnet, RICE); test: Post-emerge test, crop safety; settings: post-emerge, crop damage rating 0-100 at 14 days after application
Outline: as §3

[14] = test system: lambsquarters (Chenopodium album, CHEAL); test: Pre-emerge test, greenhouse herbicide activity screening; settings: pre-emerge, phytotoxicity rating 0-100 at 14 days after application
Outline: as §3

[15] = test system: johnsongrass (Sorghum halepense, SORHA); test: as above; settings: pre-emerge, phytotoxicity rating 0-100 at 14 days after application
Outline: as §3

[16] = test system: ivyleaf morningglory (Ipomoea hederacea, IPOHE); test: as above; settings: pre-emerge, phytotoxicity rating 0-100 at 14 days after application
Outline: as §3

[17] = test system: barnyardgrass (Echinochloa crus-galli, ECHCG); test: as above; settings: pre-emerge, phytotoxicity rating 0-100 at 14 days after application
Outline: as §3

[18] = test system: green foxtail (Setaria viridis, SETVI); test: as above; settings: pre-emerge, phytotoxicity rating 0-100 at 14 days after application
Outline: as §3

[19] = test system: sicklepod (Cassia obtusifolia, CASOB); test: as above; settings: pre-emerge, phytotoxicity rating 0-100 at 14 days after application
Outline: as §3

[20] = test system: velvetleaf (Abutilon theophrasti, ABUTH); test: as above; settings: pre-emerge, phytotoxicity rating 0-100 at 14 days after application
Outline: as §3

[21] = test system: large crabgrass (Digitaria sanguinalis, DIGSA); test: as above; settings: pre-emerge, phytotoxicity rating 0-100 at 14 days after application
Outline: as §3

[22] = test system: redroot pigweed (Amaranthus retroflexus, AMARE); test: as above; settings: pre-emerge, phytotoxicity rating 0-100 at 14 days after application
Outline: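 Herbicidal damage is scored 0 (none) to 100 (complete plant death) two weeks after a simulated field spray. Rates span 15–1000 g ai/ha, delivered in acetone at 187 l/ha. For post-emergence treatments, plants have 2–3 leaves and the spray carries 0.25% v/v non-ionic surfactant.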

CC(C)Oc1c(Cl)cc(F)c(N2C(=O)C3=C(CCCC3)C2=O)c1NC(=O)c1ccc(F)cc1F [8-18]
Post-emerge Herbicidal Activity CHEAL ([1]; 63 g ai/ha): 70
Post-emerge Herbicidal Activity CHEAL ([1]; 250 g ai/ha): 80
Post-emerge Herbicidal Activity SORHA ([2]; 63 g ai/ha): 10
Post-emerge Herbicidal Activity SORHA ([2]; 250 g ai/ha): 30
Post-emerge Herbicidal Activity IPOHE ([3]; 63 g ai/ha): 50
Post-emerge Herbicidal Activity IPOHE ([3]; 250 g ai/ha): 60
Post-emerge Herbicidal Activity ECHCG ([4]; 63 g ai/ha): 10
Post-emerge Herbicidal Activity ECHCG ([4]; 250 g ai/ha): 30
Post-emerge Herbicidal Activity AMARE ([5]; 63 g ai/ha): 100
Post-emerge Herbicidal Activity AMARE ([5]; 250 g ai/ha): 100
Post-emerge Herbicidal Activity SETVI ([6]; 63 g ai/ha): 30
Post-emerge Herbicidal Activity SETVI ([6]; 250 g ai/ha): 30
Post-emerge Herbicidal Activity CASOB ([7]; 63 g ai/ha): 30
Post-emerge Herbicidal Activity CASOB ([7]; 250 g ai/ha): 40
Post-emerge Herbicidal Activity ABUTH ([8]; 63 g ai/ha): 100
Post-emerge Herbicidal Activity ABUTH ([8]; 250 g ai/ha): 100
Post-emerge Herbicidal Activity DIGSA ([9]; 63 g ai/ha): 10
Post-emerge Herbicidal Activity DIGSA ([9]; 250 g ai/ha): 20
Pre-emerge Herbicidal Activity CORN ([10]; rate 63 g ai/ha): 0
Pre-emerge Herbicidal Activity CORN ([10]; rate 250 g ai/ha): 10
Pre-emerge Herbicidal Activity RICE ([11]; rate 63 g ai/ha): 10
Pre-emerge Herbicidal Activity RICE ([11]; rate 250 g ai/ha): 30
Post-emerge Herbicidal Activity CORN ([12]; 63 g ai/ha): 5
Post-emerge Herbicidal Activity CORN ([12]; 250 g ai/ha): 30
Post-emerge Herbicidal Activity RICE ([13]; 63 g ai/ha): 50
Post-emerge Herbicidal Activity RICE ([13]; 250 g ai/ha): 60
Pre-emerge Herbicidal Activity CHEAL ([14]; rate 63 g ai/ha): 70
Pre-emerge Herbicidal Activity CHEAL ([14]; rate 250 g ai/ha): 100
Pre-emerge Herbicidal Activity SORHA ([15]; rate 63 g ai/ha): 0
Pre-emerge Herbicidal Activity SORHA ([15]; rate 250 g ai/ha): 50
Pre-emerge Herbicidal Activity IPOHE ([16]; rate 63 g ai/ha): 0
Pre-emerge Herbicidal Activity IPOHE ([16]; rate 250 g ai/ha): 30
Pre-emerge Herbicidal Activity ECHCG ([17]; rate 63 g ai/ha): 10
Pre-emerge Herbicidal Activity ECHCG ([17]; rate 250 g ai/ha): 90
Pre-emerge Herbicidal Activity SETVI ([18]; rate 63 g ai/ha): 50
Pre-emerge Herbicidal Activity SETVI ([18]; rate 250 g ai/ha): 100
Pre-emerge Herbicidal Activity CASOB ([19]; rate 63 g ai/ha): 0
Pre-emerge Herbicidal Activity CASOB ([19]; rate 250 g ai/ha): 60
Pre-emerge Herbicidal Activity ABUTH ([20]; rate 63 g ai/ha): 90
Pre-emerge Herbicidal Activity ABUTH ([20]; rate 250 g ai/ha): 100
Pre-emerge Herbicidal Activity DIGSA ([21]; rate 63 g ai/ha): 10
Pre-emerge Herbicidal Activity DIGSA ([21]; rate 250 g ai/ha): 80
Pre-emerge Herbicidal Activity AMARE ([22]; rate 63 g ai/ha): 60
Pre-emerge Herbicidal Activity AMARE ([22]; rate 250 g ai/ha): 100

Reference: patent publication US6355799B1, “Substituted benzene compounds, process for their preparation, and herbicidal and defoliant compositions containing them” (ISK Americas Incorporated, priority 1997, dated 2002)
